Data on 47 sequences can be found in US7524503B2, “Human cytomegalovirus (HCMV) cytotoxic T cell epitopes, polyepitopes compositions comprising same and diagnostic and prophylactic and therapeutic uses therefor” (priority 2001, dated 2009).

One test concerns the target T1, HLA B7 (Homo sapiens, UniProt P01889).
T1 construct: expressed in transfected cells; host or cells: T2 cells
The class given is cell-based. The conditions noted are these: HLA B7 on transfected T2 cells; relative increase vs no peptide at 26° C.

A further test has as its system HLA B8. In words: MHC stabilization assay on T2 cells. It counts as cell-based, human. The following applies: HLA B8 on transfected T2 cells; relative increase vs no peptide at 26° C.
Test [1] deals with PBMC from healthy HCMV seropositive donors. In words: IFN-γ ELISPOT assay. The class given is cell-based, human. The conditions noted are these: peptide 10 μg/ml. Put shortly: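 IFN-γ-secreting T cells were counted as spots, with no-peptide control wells subtracted and means taken from triplicate wells. These spots came from healthy seropositive carriers' PBMC, 2.5×10^5 per well.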

In test [2] the test system is peptide-sensitized autologous PHA blasts or LCLs. The class given is cell-based, human. On the set-up: key to CTL response: Y: Yes; ND: Not detected. The conditions noted are these: predicted epitopes, Table 3.
The subject of a further test is HLA A24. Kind of test: MHC stabilization assay on T2 cells. It counts as cell-based, human. The conditions noted are these: HLA A24 on transfected T2 cells; relative increase vs no peptide at 26° C.
The subject of another test is HLA B27. Kind of test: MHC stabilization assay on T2 cells. The class given is cell-based, human. The conditions noted are these: HLA B27 on transfected T2 cells; relative increase vs no peptide at 26° C.

T1 sequence (P01889 25-362): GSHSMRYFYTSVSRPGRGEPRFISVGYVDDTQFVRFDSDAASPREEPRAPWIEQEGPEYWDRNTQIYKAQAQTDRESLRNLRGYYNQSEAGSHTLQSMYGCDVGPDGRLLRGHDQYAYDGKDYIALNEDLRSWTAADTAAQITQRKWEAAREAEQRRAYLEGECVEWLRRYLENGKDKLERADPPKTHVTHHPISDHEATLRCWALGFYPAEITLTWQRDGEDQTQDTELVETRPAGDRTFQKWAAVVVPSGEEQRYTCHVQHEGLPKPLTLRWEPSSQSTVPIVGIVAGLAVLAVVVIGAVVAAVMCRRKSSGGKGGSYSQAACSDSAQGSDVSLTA
T1 sequence (P61769 21-119, further chain): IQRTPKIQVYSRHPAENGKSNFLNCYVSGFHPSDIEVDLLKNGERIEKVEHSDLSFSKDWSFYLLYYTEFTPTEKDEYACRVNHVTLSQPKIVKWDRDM

Turning to “APYQRDNFIL (human cytomegalovirus gH CTL epitope peptide)”, the “MSE (MHC stabilization efficiency)” value with HLA B7 is on record as “+++ (+++ = 200-300%)”.
With “PRKKKSKRI (human cytomegalovirus IE2 CTL epitope peptide)”, the “MSE (MHC stabilization efficiency)” value in the test with HLA B8 was “− (− = 0-50%)”.
For the sequence “QIKVRVDMV (human cytomegalovirus IE1 CTL epitope peptide)”, the “MSE (MHC stabilization efficiency)” value in the test with HLA B8 was “+ (+ = 51-99%)”. The “ELISPOT Responses (SFC/10^6 PBMC)” value in test [1] (donor eleven) is on record as 2425 SFC/10^6 PBMC; in test [1] (donor epsilon), 2848 SFC/10^6 PBMC; in test [1] (donor one), 475 SFC/10^6 PBMC; in test [1] (donor sixteen) it was 2251 SFC/10^6 PBMC. For the same sequence, the “CTL response” value in test [2] is listed as “Y”.
In the case of “KARDHLAVL (human cytomegalovirus pp150 CTL epitope peptide)”, in the test with HLA B7, the “MSE (MHC stabilization efficiency)” value was “+++ (+++ = 200-300%)”. The “ELISPOT Responses (SFC/10^6 PBMC)” value in test [1] (donor four) is recorded as “MB(975) SFC/10^6 PBMC”.
“APVAGSMPEL (human cytomegalovirus US11 CTL epitope peptide)”: the “MSE (MHC stabilization efficiency)” value with HLA B7 was “+++ (+++ = 200-300%)”.
On to QPKRRRHRQ, for which, in the test on HLA B8, the “MSE (MHC stabilization efficiency)” value is listed as “− (− = 0-50%)”.
As to “KARAKKDEL (human cytomegalovirus IE1 CTL epitope peptide)”, the “MSE (MHC stabilization efficiency)” value in the test with HLA B7 and in the test with HLA B8 was “−/− (− = 0-50%)” throughout. The “ELISPOT Responses (SFC/10^6 PBMC)” value in test [1] (donor eleven) turned out to be 235 SFC/10^6 PBMC; in test [1] (donor four) it was 231 SFC/10^6 PBMC.
“VMKRRIEEI (human cytomegalovirus IE1 CTL epitope peptide)”: in the test with HLA B8, the “MSE (MHC stabilization efficiency)” value was “+ (+ = 51-99%)”.
With “ELKRKMMYM (human cytomegalovirus IE1 CTL epitope peptide)”, the “MSE (MHC stabilization efficiency)” value with HLA B8 is “− (− = 0-50%)”. Further, the “ELISPOT Responses (SFC/10^6 PBMC)” value in test [1] (donor eleven) is 300 SFC/10^6 PBMC; in test [1] (donor epsilon), “SC(1000), SFC/10^6 PBMC”; in test [1] (donor gamma), 100 SFC/10^6 PBMC; in test [1] (donor sixteen), 4999 SFC/10^6 PBMC; in test [1] (donor three), 1992 SFC/10^6 PBMC. In test [2], the “CTL response” value is given as “Y”.
For “WPRERAWAL (human cytomegalovirus pp150 CTL epitope peptide)”, the “MSE (MHC stabilization efficiency)” value with HLA B7 is “+++ (+++ = 200-300%)”; with HLA B8, “++ (++ = 100-199%)”. In addition, the “ELISPOT Responses (SFC/10^6 PBMC)” value in test [1] (donor sixteen) was “TC(67) SFC/10^6 PBMC”.
As to “SPRTHYLMLL (human cytomegalovirus gH CTL epitope peptide)”, the “MSE (MHC stabilization efficiency)” value in the test with HLA B7 is “+++ (+++ = 200-300%)”.
VLCPKNMII [reference compound]: the “MSE (MHC stabilization efficiency)” value in the test with HLA B8 is recorded as “− (− = 0-50%)”.
With “TPRVYYQTL (human cytomegalovirus US11 CTL epitope peptide)”, in the test with HLA B7, the “MSE (MHC stabilization efficiency)” value is “+++ (+++ = 200-300%)”.
Consider QARLTVSGL, for which the “MSE (MHC stabilization efficiency)” value with HLA B7 is recorded as “+++ (+++ = 200-300%)”. Also, in test [1] (donor four), the “ELISPOT Responses (SFC/10^6 PBMC)” value is “MB(1116) SFC/10^6 PBMC”.
Take “SYRSFSQQL (human cytomegalovirus gH CTL epitope peptide)”: the “MSE (MHC stabilization efficiency)” value in the test with HLA A24 is reported as “− (− = 0-50%)”.
On to “YYVFHMPRCL (human cytomegalovirus gH CTL epitope peptide)”, for which the “MSE (MHC stabilization efficiency)” value in the test on HLA A24 was “− (− = 0-50%)”.
On to VYALPLKML, for which the “MSE (MHC stabilization efficiency)” value in the test with HLA A24 is given as “− (− = 0-50%)”.
Consider “ELRRKMMYM (human cytomegalovirus IE1 CTL epitope peptide)”, for which the “MSE (MHC stabilization efficiency)” value in the test with HLA B8 is on record as “++ (++ = 100-199%)”. Also, the “ELISPOT Responses (SFC/10^6 PBMC)” value in test [1] (donor eleven) was 430 SFC/10^6 PBMC; in test [1] (donor epsilon) it was 1243 SFC/10^6 PBMC; in test [1] (donor one), 145 SFC/10^6 PBMC; in test [1] (donor sixteen), 4999 SFC/10^6 PBMC. The “CTL response” value in test [2] is given as “Y”.
Turning to VYYTSAFVF, the “MSE (MHC stabilization efficiency)” value in the test with HLA A24 is on record as “− (− = 0-50%)”.
Regarding LCPKSIPGL, the “MSE (MHC stabilization efficiency)” value with HLA B8 is given as “− (− = 0-50%)”.
Turning to “TRVKRNVKK (human cytomegalovirus pp50 CTL epitope peptide)”, the “MSE (MHC stabilization efficiency)” value in the test with HLA B27 is given as “− (− = 0-50%)”.
As to EPMSIYVYAL, in the test with HLA B7, the “MSE (MHC stabilization efficiency)” value is “+ (+ = 51-99%)”.
For “QYILGADPL (human cytomegalovirus IE1 CTL epitope peptide)”, the “MSE (MHC stabilization efficiency)” value in the test on HLA A24 is “+++ (+++ = 200-300%)”.
Still for that read-out and setting: with “VYVTVDCNL (human cytomegalovirus US2 CTL epitope peptide)” the entry was “− (− = 0-50%)”.
For “IMKDKNTPF (human cytomegalovirus IE2 CTL epitope peptide)”, the “MSE (MHC stabilization efficiency)” value in the test on HLA B8 was “+++ (+++ = 200-300%)”.
Turning to “RRDHSLERL (human cytomegalovirus gH CTL epitope peptide)”, the “MSE (MHC stabilization efficiency)” value with HLA B27 is listed as “− (− = 0-50%)”.
Regarding “CYSRPVVIF (human cytomegalovirus gB CTL epitope peptide)”, the “MSE (MHC stabilization efficiency)” value in the test on HLA A24 is on record as “− (− = 0-50%)”.
For “GRCQMLDRR (human cytomegalovirus gH CTL epitope peptide)”, in the test on HLA B27, the “MSE (MHC stabilization efficiency)” value was “− (− = 0-50%)”.
Consider “SPRTHYLML (human cytomegalovirus gH CTL epitope peptide)”, for which, in the test with HLA B7, the “MSE (MHC stabilization efficiency)” value is “+++ (+++ = 200-300%)”.
YRIQGKLEY: in the test on HLA B27, the “MSE (MHC stabilization efficiency)” value is “− (− = 0-50%)”. For the same sequence, the “ELISPOT Responses (SFC/10^6 PBMC)” value in test [1] (donor sixteen) is “TC(307) SFC/10^6 PBMC”.
As to “SPWAPTAPL (human cytomegalovirus pp150 CTL epitope peptide)”, the “MSE (MHC stabilization efficiency)” value in the test with HLA B7 is recorded as “+++ (+++ = 200-300%)”. In addition, the “ELISPOT Responses (SFC/10^6 PBMC)” value in test [1] (donor four) was “MB(180) SFC/10^6 PBMC”.
As for “FPDLFCLPL (human cytomegalovirus gH CTL epitope peptide)”, the “MSE (MHC stabilization efficiency)” value with HLA B7 was “+++ (+++ = 200-300%)”.
Regarding “RHRIKEHML (human cytomegalovirus IE1 CTL epitope peptide)”, the “MSE (MHC stabilization efficiency)” value in the test with HLA B8 is “− (− = 0-50%)”.
As to “RRIEEICMK (human cytomegalovirus IE1 CTL epitope peptide) [reference compound]”, in the test on HLA B27, the “MSE (MHC stabilization efficiency)” value is reported as “− (− = 0-50%)”.
As for “AYIYTTYLL (human cytomegalovirus gB CTL epitope peptide)”, in the test on HLA A24, the “MSE (MHC stabilization efficiency)” value is reported as “− (− = 0-50%)”.
Same read-out and setting: next, “EYIVQIQNAF (human cytomegalovirus pp71 CTL epitope peptide)”: “+++ (+++ = 200-300%)”.
For the sequence “ARVYEIKCR (human cytomegalovirus pp28 CTL epitope peptide)”, in the test with HLA B27, the “MSE (MHC stabilization efficiency)” value is given as “− (− = 0-50%)”. Besides, the “ELISPOT Responses (SFC/10^6 PBMC)” value in test [1] (donor fourteen) is “RK(148) SFC/10^6 PBMC”. Also, the “CTL response” value in test [2] is “Y”.
Take “VYLFSLVVL (human cytomegalovirus US3 CTL epitope peptide)”: the “MSE (MHC stabilization efficiency)” value in the test on HLA A24 is listed as “− (− = 0-50%)”.
As to “CRYKYLRKK (human cytomegalovirus pp28 CTL epitope peptide)”, the “MSE (MHC stabilization efficiency)” value in the test with HLA B27 was “− (− = 0-50%)”.
Turning to “NVRRSWEEL (human cytomegalovirus pp150 CTL epitope peptide)”, the “MSE (MHC stabilization efficiency)” value in the test with HLA B7 is given as “++ (++ = 100-199%)”. Besides, the “ELISPOT Responses (SFC/10^6 PBMC)” value worked out at 274 SFC/10^6 PBMC in test [1] (donor five) and 1431 SFC/10^6 PBMC in test [1] (donor four).
For the sequence “SYENKTMQL (human cytomegalovirus gB CTL epitope peptide)”, in the test on HLA A24, the “MSE (MHC stabilization efficiency)” value was “− (− = 0-50%)”.
Take RRRHRQDAL: the figures for the “MSE (MHC stabilization efficiency)” value in the test with HLA B8 and in the test on HLA B27 were “+ (+ = 51-99%)” and “++ (++ = 100-199%)”, respectively. Further, the “ELISPOT Responses (SFC/10^6 PBMC)” value came to 215 SFC/10^6 PBMC in test [1] (donor eleven) and 71 SFC/10^6 PBMC in test [1] (donor sixteen).
On to “MYMHDSDDVL (human cytomegalovirus gH CTL epitope peptide)”, for which the “MSE (MHC stabilization efficiency)” value in the test with HLA A24 is given as “− (− = 0-50%)”.
Regarding “TPMLLIFGHL (human cytomegalovirus gH CTL epitope peptide)”, in the test with HLA B7, the “MSE (MHC stabilization efficiency)” value was “++ (++ = 100-199%)”.
Consider “NYLDLSALL (human cytomegalovirus gH CTL epitope peptide)”, for which the “MSE (MHC stabilization efficiency)” value with HLA A24 was “− (− = 0-50%)”.
Consider “MPRCLFAGPL (human cytomegalovirus gH CTL epitope peptide)”, for which, in the test with HLA B7, the “MSE (MHC stabilization efficiency)” value is given as “+++ (+++ = 200-300%)”.
For the sequence “RRKMMYMCY (human cytomegalovirus IE1 CTL epitope peptide)”, the “MSE (MHC stabilization efficiency)” value in the test with HLA B27 is listed as “+ (+ = 51-99%)”.
